Results reported in PMC12024912, “Druggability Studies of Benzene Sulfonamide Substituted Diarylamide (E3) as a Novel Diuretic” (Biomedicines, 2025).

Key:
UT-B [1] = target: T1, UT-B (Rattus norvegicus, UniProt P97689); test: Erythrocyte lysis assay for UT-B inhibition, rat erythrocytes; type: cell-based; conditions: erythrocyte lysis model; rat; n = 3, means; read-out: IC50 (μM) Rat
T1 construct: endogenous in cells; host or cells: erythrocytes from male SD rats
T1 sequence (P97689 1-384): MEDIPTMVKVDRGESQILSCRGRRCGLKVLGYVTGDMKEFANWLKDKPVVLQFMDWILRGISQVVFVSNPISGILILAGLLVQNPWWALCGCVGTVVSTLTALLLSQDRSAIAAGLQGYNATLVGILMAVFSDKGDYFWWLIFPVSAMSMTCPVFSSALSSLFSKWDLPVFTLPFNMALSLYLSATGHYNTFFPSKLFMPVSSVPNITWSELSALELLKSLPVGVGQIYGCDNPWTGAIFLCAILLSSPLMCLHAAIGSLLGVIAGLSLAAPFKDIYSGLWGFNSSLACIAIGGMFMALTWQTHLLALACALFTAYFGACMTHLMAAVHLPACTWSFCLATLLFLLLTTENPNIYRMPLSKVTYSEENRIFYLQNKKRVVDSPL
Procedure: (§1) The erythrocyte lysis assay was modified from a method described previously. Erythrocytes obtained from veins were diluted to a hematocrit value of 2% in hyperosmolar PBS containing 1.25 mol/L urea and 5 mmol/L glucose and incubated at r.t. for 2 h. Then, 99 μL erythrocyte suspension from a reservoir was added to each well of a 96-well round-bottom microplate, then 1 μL of the testing compound (500, 125, 31.25, 7.81, 1.95, 0.488, 0.122, 0.031, 0.0076 μmol/L dissolved in DMSO) was added to erythrocyte suspension and shook it up with microoscillator for 1 min. Following 5 min incubation, 20 μL erythrocyte suspension was transferred into 96-well black microplates preloaded with 180 μL isotonic PBS (10 mM, urea-free). Erythrocyte lysis was monitored at 710 nm optical density (OD710) for 6 min, with lysis rates calculated using control values from the same plate as Equation (1):Lysis (%) = 100 × (Aneg − Atest)/(Aneg − Apos)(1) where Atest is the absorbance value from the test well, Aneg is from a negative no-lysis control well, and Apos is from a positive full-lysis control.

UT-B [2] = target: T2, UT-B (Mus musculus, UniProt Q8VHL0); test: Erythrocyte lysis assay for UT-B inhibition, mouse erythrocytes; type: cell-based; conditions: erythrocyte lysis model; mouse; n = 3, means; read-out: IC50 (μM) Mouse
T2 construct: endogenous in cells; host or cells: erythrocytes from wild-type C57BL/6 mice
T2 sequence (Q8VHL0 1-384): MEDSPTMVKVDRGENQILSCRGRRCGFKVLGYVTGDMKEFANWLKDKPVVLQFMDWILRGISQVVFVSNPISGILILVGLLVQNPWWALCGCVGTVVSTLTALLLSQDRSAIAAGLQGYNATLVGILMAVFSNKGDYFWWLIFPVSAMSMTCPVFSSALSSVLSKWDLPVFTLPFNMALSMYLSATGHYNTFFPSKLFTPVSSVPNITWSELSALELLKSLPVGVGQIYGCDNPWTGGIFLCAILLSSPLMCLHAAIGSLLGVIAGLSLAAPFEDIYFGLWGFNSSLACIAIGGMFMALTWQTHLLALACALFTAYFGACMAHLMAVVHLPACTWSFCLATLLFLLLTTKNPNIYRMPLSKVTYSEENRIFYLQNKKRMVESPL
Procedure: as §1

[3] = test system: rat hyponatremia model caused by SIADH; test: Rat hyponatremia model caused by SIADH (dDAVP); type: in vivo
Procedure: The protocol for dDAVP-induced hyponatremia was adapted from a previous study, with tolvaptan chosen as the positive control. Preliminary experiments determined the dose of dDAVP (0.25 ng/h). Under isoflurane anesthesia, a 0.5 μg/mL dDAVP solution was injected subcutaneously using an osmotic minipump (ALZET 2002, Cupertino, CA, USA; 200 μL, low rate of 0.5 μL/h for […]). Rats were housed individually in metabolic cages to collect urine. Before using the pump, they were given 62.5 mL/d 1.0 kcal/mL of liquid food. After pump implantation, the rats received 40 mL of 2.1 kcal/mL of liquid feed daily. The rats were divided into five groups: control group (sham operation), model group (0.5% poloxamer, solvent), 4 mg/kg tolvaptan group, 4 mg/kg E3 group, and 20 mg/kg E3 group. E3 was administered orally every 8 h, while tolvaptan was given intragastrically once daily. At the end of the experiment, the rats were sacrificed.

[4] = design: method as in PMID 35458649; conditions: 25a, comparison value; cited from earlier work
mice = test: Mouse sperm malformation assay; conditions: mice; day 35; E3 2000 mg/kg/day oral for 5 days; CP 50 mg/kg i.p.; vs control
Procedure: Male mice were randomly divided into three groups: control group (0.5% CMC-Na), E3 2000 mg/kg group, and positive group (50 mg/kg cyclophosphamide (CP), administered via intraperitoneal injection). E3 and the control group were administered once daily by intragastric gavage. All mice received treatment for 5 consecutive days. After the initial dosing period, […], the mice were euthanized, and evaluation of sperm parameters was performed as follows:
Caudal epididymides were dissected into fragments in physiological saline and incubated (37 °C, 5% CO2, 10 min). Spermatozoa were isolated through nylon mesh filtration. Semen parameters were quantified using computer-assisted semen analysis (CASA). Eosin-stained smears (20 μL sperm suspension) were analyzed to examine sperm morphology. […] Sperm shape abnormalities, such as banana, headless, without a hook, amorphous, double-tailed, and fat head, were identified and counted. In addition, the testis was reserved for morphological analysis. The spermatogenesis was graded from 1 to 10 using the Johnsen score.

[5] = SIADH rats, E3 4 or 20 mg/kg every 8 h, tolvaptan 4 mg/kg once daily, vs model rats

IC50 (UT-B [1])	IC50 (UT-B [2])	SMILES	other results
0.05 µM	0.18 µM	CC(=O)c1ccc(C(=O)Nc2ccc(NS(=O)(=O)c3ccccc3)c(O)c2)o1 [Compound E6]	–
6.46 µM	> 10 µM	CC(=O)c1ccc(C(=O)Nc2ccccc2NS(=O)(=O)c2ccccc2)o1 [Compound E4]	–
0.06 µM	0.23 µM	CC(=O)c1ccc(C(=O)Nc2ccc(NS(=O)(=O)c3ccccc3)cc2)o1 [Compound E5]	–
0.09 µM	0.23 µM	CC(=O)c1ccc(C(=O)Nc2ccc(S(=O)(=O)Nc3ccccc3)cc2)o1 [Compound E7]	–

More lines, now with the values behind:

SMILES	IC50 (UT-B [1])	IC50 (UT-B [2])	other results
CC(=O)c1ccc(C(=O)Nc2ccc(C(=O)NCCN(C)C)cc2)o1 [Compound E2]	0.4 µM	2.41 µM	–
CC(=O)c1ccc(C(=O)Nc2ccc(S(=O)(=O)Nc3ccc(OCCN4CCOCC4)cc3)cc2)o1 [Compound E8]	0.77 µM	2.55 µM	–
CC(=O)c1ccc(C(=O)Nc2ccc(S(=O)(=O)Nc3ccc(OCCCN4CCOCC4)cc3)cc2)o1 [Compound E9]	1.75 µM	4.07 µM	–
Cc1ccccc1C(=O)Nc1ccc(C(=O)N2CCCC(O)c3cc(Cl)ccc32)c(C)c1 (stereo not drawn) [tolvaptan, reference compound]	–	–	hyponatremia in SIADH rats ([3]; E3 4 or 20 mg/kg orally every 8 h, tolvaptan 4 mg/kg once daily, vs model): significantly alleviated; serum osmolality [3, 5]: significantly increased; serum sodium concentration [3, 5]: significantly increased; blood urea levels ([3]; SIADH rats, between experimental groups before and after treatment): no significant difference; H&E staining of kidney and liver ([3]; SIADH rats, except dilatation of collecting ducts): normal tissue structures
CCN1CCN(c2ccc(NC(=O)c3ccc(C(C)=O)o3)cc2)CC1 [Compound E1]	0.32 µM	0.86 µM	–
CC(=O)Nc1ccc(NC(=O)c2ccc(C(C)=O)o2)cc1 [Compound 25a, N-(4-acetamidophenyl)-5-acetylfuran-2-carboxamide]	–	–	half-life [4]: 2.86 h; tmax time [4]: 0.25 h
O=P1(N(CCCl)CCCl)NCCCO1 (stereo not drawn) [cyclophosphamide (CP), cyclophosphamide, reference compound]	–	–	testicular and epididymal indices, sperm motility, abnormal morphology, sperm counts, Johnsen score (mice): caused abnormalities
